In patent US7342039B2, “Substituted indole oximes” (Wyeth, priority 2003, dated 2008):

Key:
[1] = target: T1, recombinant human plasminogen activator inhibitor-1 (PAI-1) (Homo sapiens, UniProt P05121); test: Screening for PAI-1 inhibition (chromogenic residual tPA activity, Spectrozyme-tPA); type: biochemical; details: 25 μM test compound; 140 nM PAI-1, 70 nM tPA, pH 6.6
T1 construct: purchased Molecular Innovations, Royal Oak, Mich
Description: Screening for PAI-1 inhibition. Test compounds are dissolved in DMSO at a final concentration of 10 mM, then diluted 100× in physiologic buffer. The inhibitory assay is initiated by the addition of the test compound (1-100 μM final concentration, maximum DMSO concentration of 0.2%) in a pH 6.6 buffer containing 140 nM recombinant human plasminogen activator inhibitor-1 (PAI-1; Molecular Innovations, Royal Oak, Mich.). Following a 1 hour incubation at room temperature, 70 nM of recombinant human tissue plasminogen activator (tPA) is added, and the combination of the test compound, PAI-1 and tPA is incubated for an additional 30 minutes. Following the second incubation, Spectrozyme-tPA (American Diagnostica, Greenwich, Conn.), a chromogenic substrate for tPA, is added and absorbance read at 405 nm at 0 and 60 minutes. Relative PAI-1 inhibition is equal to the residual tPA activity in the presence of the test compounds and PAI-1. Control treatments include the complete inhibition of tPA by PAI-1 at the molar ratio employed (2:1), and the absence of any effect of the test compound on tPA alone.

human PAI-1 = human PAI-1 (Homo sapiens, UniProt P05121); test: Assay for determining the IC50 of inhibition of PAI-1 (antibody detection of active PAI-1 bound to tPA-coated plate); type: binding; details: human PAI-1 50 ng/ml, pH 7.5
Description: Assay for determining the IC50 of inhibition of PAI-1. This assay is based upon the non-SDS dissociable interaction between tPA and active PAI-1. Assay plates are initially coated with human tPA (10 μg/ml). Test compounds are dissolved in DMSO at 10 mM, then diluted with physiologic buffer (pH 7.5) to a final concentration of 1-50 μM. The test compounds are incubated with human PAI-1 (50 ng/ml) for 15 minutes at room temperature. The tPA-coated plate is washed with a solution of 0.05% Tween 20 and 0.1% BSA, then the plate is blocked with a solution of 3% BSA. An aliquot of the test compound/PAI-1 solution is then added to the tPA-coated plate, incubated at room temperature for 1 hour, and washed. Active PAI-1 bound to the plate is assessed by adding an aliquot of a 1:1000 dilution of the 33B8 monoclonal antibody against human PAI-1, and incubating the plate at room temperature for 1 hour (Molecular Innovations, Royal Oak, Mich.). The plate is again washed, and a solution of goat anti-mouse IgG-alkaline phosphatase conjugate is added at a 1:50,000 dilution in goat serum. The plate is incubated 30 minutes at room temperature, washed, and a solution of alkaline phosphatase substrate is added. The plate is incubated 45 minutes at room temperature, and color development is determined at OD405 nm. The quantitation of active PAI-1 bound to tPA at varying concentrations of the test compound is used to determine the IC50. Results are analyzed using a logarithmic best-fit equation. The assay sensitivity is 5 ng/ml of human PAI-1 as determined from a standard curve ranging from 0-100 ng/ml.

T1 sequence (P05121 24-402): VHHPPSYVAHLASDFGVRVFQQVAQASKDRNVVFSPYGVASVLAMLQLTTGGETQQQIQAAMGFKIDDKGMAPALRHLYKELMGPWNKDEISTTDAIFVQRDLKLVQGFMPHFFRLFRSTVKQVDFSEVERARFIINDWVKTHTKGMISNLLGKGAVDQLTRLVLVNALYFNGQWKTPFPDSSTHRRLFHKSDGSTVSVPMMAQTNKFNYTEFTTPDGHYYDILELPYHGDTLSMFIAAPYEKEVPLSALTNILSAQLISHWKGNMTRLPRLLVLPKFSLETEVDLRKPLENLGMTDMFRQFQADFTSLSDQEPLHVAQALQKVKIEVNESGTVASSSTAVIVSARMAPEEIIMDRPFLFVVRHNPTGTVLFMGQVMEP
human PAI-1, sequence (P05121 24-402): as above

inhibition at 25 µM [1] | melting point | IC50 (human PAI-1) | SMILES
34% | 165 to 166 °C |  | Cc1c(/C=N/OCc2ccc(C(=O)O)c(Br)c2)c2ccccc2n1C [Compound 9, 2-bromo-4-[({[(1E)-(1,2-dimethyl-1H-indol-3-yl)methylidene]amino}oxy)methyl]benzoic acid]
 |  | 29.2 µM | O=C(O)c1ccc(CO/N=C/c2cn(Cc3ccccc3)c3ccccc23)cc1Br [Compound 3, 4-[({[(1E)-(1-benzyl-1H-indol-3-yl)methylidene]amino}oxy)methyl]-2-bromobenzoic acid]
 |  | 11.8 µM | CC(C)(C)c1ccc(C(=O)Nc2cc(OCCCO/N=C/c3cn(Cc4ccccc4)c4ccccc34)ccc2C(=O)O)cc1 [Compound 1, 4-[3-({[(1E)-(1-benzyl-1H-indol-3-yl)methylidene]amino}oxy)propoxy]-2-[(4-tert-butylbenzoyl)amino]benzoic acid]
100% | 196 to 197 °C |  | O=C(O)c1ccc(OCCCO/N=C/c2cc3ccccc3n2Cc2ccccc2)c(-c2ccc(C(F)(F)F)cc2)c1 [Compound 8, 6-[3-({[(1E)-(1-benzyl-1H-indol-2-yl)methylidene]amino}oxy)propoxy]-4′-(trifluoromethyl)-1,1′-biphenyl-3-carboxylic acid]
 | 175 to 176 °C (dec.) | 22.4 µM | O=C(O)c1ccc(OCCCO/N=C/c2cc3ccccc3n2Cc2ccccc2)cc1O [Compound 5, 4-[3-({[(1E)-(1-benzyl-1H-indol-2-yl)methylidene]amino}oxy)propoxy]-2-hydroxybenzoic acid]
54% |  |  | Cc1c(/C=N/OCCCOc2ccc(CC(=O)O)cc2)c2ccccc2n1C [Compound 7, {4-[3-({[(1E)-(1,2-dimethyl-1H-indol-3-yl)methylidene]amino}oxy)propoxy]phenyl}acetic acid]
 |  | 21.6 µM | O=C(O)c1ccc(OCCCO/N=C/c2cn(Cc3ccccc3)c3ccccc23)cc1O [Compound 2, 4-[3-({[(1E)-(1-benzyl-1H-indol-3-yl)methylidene]amino}oxy)propoxy]-2-hydroxybenzoic acid]
 | 148 to 149 °C | 12.3 µM | O=C(O)c1ccc(CO/N=C/c2cc3ccccc3n2Cc2ccccc2)cc1Br [Compound 4, 4-[({[(1E)-(1-benzyl-1H-indol-2-yl)methylidene]amino}oxy)methyl]-2-bromobenzoic acid]
55% | 193 to 194 °C |  | O=C(O)c1ccc(OCCCO/N=C/c2cn(Cc3ccccc3)c3ccccc23)c(-c2ccc(C(F)(F)F)cc2)c1 [Compound 6, 6-[3-({[(1E)-(1-benzyl-1H-indol-3-yl)methylidene]amino}oxy)propoxy]-4′-(trifluoromethyl)-1,1′-biphenyl-3-carboxylic acid]
